# Experiments:
# Leukemia cell lines = experiment: NCI 60 five-dose screen, leukemia panel; type: cell-based, human
# Experimental: National Cancer Institute Cancer Cell Line (NCI 60) Screen of DefNEtTrp. Details of the methodology for NCI 60 cell line screening are described at http://dtp.nci.nih.gov/branches/btb/ivclsp.html. The cells, grown in supplemented RPMI-1640 medium, are seeded in 96 well plates at an appropriate density and incubated for 24 h. The test compounds are dissolved in DMSO and incubated with cells at a single dose of 10.0 μM for 48 h. The assay is terminated by addition of cold trichloroacetic acid, and the cells are fixed and stained with sulforhodamine B. Bound stain is solubilized, and the absorbance is read on an automated plate reader. […] Using the seven absorbance measurements [time zero, […], control growth, (C), and test growth in the presence of drug at the five concentration levels (Tf)], the percentage growth was calculated at each of the drug concentrations levels as: [(Tf−Ti)/(C−Ti)]×100 for concentrations for which Tf≥Ti and [(Tf−Ti)/Ti]×100 for concentrations for which Tf<Ti. Three-dose response parameters (GI50, TGI, and LC50) were calculated for each of the experimental agents in five dose assay. Growth inhibition of 50% (GI50) was calculated from 100×[(Tf−Ti)/(C−Ti)]=50, which was the drug concentration resulting in a 50% reduction in the net protein increase (as measured by sulforhodamine B, SRB staining) in control cells during the drug incubation. The total growth inhibition (TGI) was calculated from Tf=Ti, which was the drug concentration resulting in total growth inhibition and signified the cytostatic effect. The 50% cellular death (LC50) was calculated from 100×[(Tf−Ti)/Ti]=−50, indicating a net loss of cells following treatment which indicated the concentration of drug resulting in a 50% reduction in the measured protein at the end of the drug treatment as compared to that at the beginning. […] Log GI50, log TGI, and log LC50 are the logarithm molar concentrations producing 50% growth inhibition (GI50), a total growth inhibition (TGI), and a 50% cellular death (LC50), respectively.
# [1] = test system: MRC-5 noncancer lung cell line; experiment: MRC-5 cell viability (MTT assay); type: cell-based, human; conditions: concentration range examined, maximum 100 μM; 72 h
# Experimental: MRC-5 cell viability studies. A thawed stock of MRC-5 cells was washed with 1×PBS and resuspended in phenol red DMEM media (supplemented with 10% FBS and 1% penicillin-streptomycin) and then seeded in a 100 mm×20 mm (complete, O.D.×H) petri dish and grown in a 5% (v/v) CO2 humidified atmosphere at 37° C. At least three passages were performed to ensure the integrity of the cells. After this point, cells were collected, thoroughly washed with 1×PBS, and then resuspended in phenol red-free DMEM (supplemented with 10% FBS, 1% penicillin-streptomycin, and 2.4 mM L-glutamine) at a 2.0×10^5 cells/mL concentration. A volume of 50 μL of cells was seeded into 96-well plates. Cells were incubated for 24 h. Stock solutions of DefNEtTrp were prepared fresh in DMF at concentrations of 20,000, 10,000, 5,000, 2,000, 1000, 200, 80, and 40 μM. The solutions were diluted 100-fold in 1×PBS to obtain a second set of stock solutions with 1% DMF(v/v). The MRC-5 cells were treated with 50 μL of DefNEtTrp compound solution from the second set of stock solutions to obtain final concentrations of 100, 50, 25, 10, 5, 1, 0.4, and 0.2 μM with 0.5% DMF (v/v). Control wells were the same type of controls as in the Jurkat cell work. Cells were incubated for 68 h and the MTT assay was performed exactly as described for the Jurkat cells.
smiles,measurement,setting,value
"Nc1cccnc1/C=N/NC(=S)NCCNC(=O)c1ccc(-n2nc(-c3ccccc3O)nc2-c2ccccc2O)cc1 [DefNEtTrp, deferasirox nitrogen ethyl triapine]",GI50,"Leukemia cell lines; Homo sapiens, Leukemia, five-dose, 48 h, read-out: GI50 (calculated average)",0.29 µM
same,TGI (calculated average),"Leukemia cell lines; Leukemia, five-dose, 48 h, cell lines in which TGI was observed",1.78 µM
same,antiproliferative behavior against all leukemia cell lines in the NCI screen,Leukemia cell lines; NCI screen,~100%
same,antiproliferative behavior against MRC-5,[1],no antiproliferative behavior
